Assay results taken from patent US20230147962A1, “FIBROBLAST ACTIVATION PROTEIN LIGANDS FOR TARGETED DELIVERY APPLICATIONS” (PHILOCHEM AG, priority 2020, published 2023).
*1 amine or outer side, *2 acyl side, *3 side chain or, on linkers, in order; H or OH if unused. Where a SMILES comes first, the peptide text is derived from it. The star is where a group is joined. Fluorescein(5-Mal) = O=C1OC2(c3ccc(O)cc3Oc3cc(O)ccc32)c2ccc(N3C(=O)CC(*)C3=O)cc21; X1 = N#C[C@@H]1CC(F)(F)CN1C(=O)CNC(=O)c1ccnc2c(N*)cccc12; Suc = O=C(CCC(=O)[*:2])[*:1]

Columns and labels:
SK-RC-52.hFAP = assay: FACS analysis on SK-RC-52 wild type and SK-RC-52.hFAP; assay type: cell-based; conditions: 10 nM
Description: (§1) SK-RC-52.hFAP, SK-RC-52.wt, HT-1080.wt and HT-1080.hFAP were detached from culture plates using Accutase, counted and suspended to a final concentration of 1.5×10^6 cells/mL in a 1% v/v solution of FCS in PBS pH 7.4. […] Cells were washed once with 200 μL 1% v/v solution of FCS in PBS pH 7.4 (200 μL), spun down, resuspended in a 1% v/v solution of FCS in PBS pH 7.4 (300 μL) and analyzed on a CytoFLEX cytometer (Beckman Coulter). The raw data were processed with the FlowJo 10.4 software.

HT-1080.hFAP [1] = assay: Confocal microscopy on HT-1080.hFAP; assay type: cell-based; conditions: t=0 and 1 h
Description: HT-1080.hFAP and HT-1080 cells were seeded into 4-well cover slip chamber plates at a density of 10^4 cells per well in DMEM medium (1 mL) supplemented with 10% FCS, AA and HEPES (10 mM) and allowed to grow for 24 hours under standard culture conditions. Hoechst 33342 nuclear dye was used to stain nuclear structures.
The culture medium was replaced with fresh medium containing conjugate 15 (100 nM). Randomly selected colonies imaged on a SP8 confocal microscope equipped with an AOBS device (Leica Microsystems).

murine FAP = target: T1, murine FAP (Mus musculus, UniProt P97321); assay: Affinity measurement to murine FAP by fluorescence polarization; assay type: binding; conditions: binder 10 nM, read-out: KD to mFAP
T1 sequence (P97321 1-761): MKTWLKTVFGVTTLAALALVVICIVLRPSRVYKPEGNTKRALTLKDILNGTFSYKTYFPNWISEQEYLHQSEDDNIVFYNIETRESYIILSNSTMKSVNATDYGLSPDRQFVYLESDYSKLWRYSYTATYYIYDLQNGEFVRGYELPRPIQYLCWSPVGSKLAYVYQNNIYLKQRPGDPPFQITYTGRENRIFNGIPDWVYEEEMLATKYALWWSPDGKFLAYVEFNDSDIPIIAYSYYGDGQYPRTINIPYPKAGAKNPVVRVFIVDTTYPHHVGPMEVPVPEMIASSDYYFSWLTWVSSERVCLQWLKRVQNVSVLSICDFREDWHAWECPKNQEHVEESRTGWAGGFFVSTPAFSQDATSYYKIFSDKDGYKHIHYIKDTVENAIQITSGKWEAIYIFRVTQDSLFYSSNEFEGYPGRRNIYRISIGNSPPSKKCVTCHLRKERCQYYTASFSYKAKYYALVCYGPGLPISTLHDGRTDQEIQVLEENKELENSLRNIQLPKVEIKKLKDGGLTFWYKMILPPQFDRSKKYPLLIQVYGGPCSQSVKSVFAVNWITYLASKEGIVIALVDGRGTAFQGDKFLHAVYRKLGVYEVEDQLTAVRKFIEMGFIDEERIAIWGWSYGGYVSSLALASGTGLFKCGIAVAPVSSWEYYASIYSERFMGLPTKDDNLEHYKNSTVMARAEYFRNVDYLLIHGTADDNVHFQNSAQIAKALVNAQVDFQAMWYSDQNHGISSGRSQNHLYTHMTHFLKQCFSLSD
Description: Fluorescence polarization experiments were performed in 384-well plates (non-binding, ps, f-bottom, black, high volume, 30 μL final volume). Stock solutions of human FAP (4 μM) and murine FAP (5 μM) were serially diluted with buffer (50 mM Tris, 100 mM NaCl, 1 mM EDTA, pH=7.4), while the final concentration of the binders was kept constant at 10 nM. The fluorescence anisotropy was measured on a TECAN microtiter plate reader. Experiments were performed in triplicate and the mean anisotropy values fitted using Prism 7.

hFAP = target: T2, hFAP (Homo sapiens, UniProt Q12884); assay: Chromatographic co-elution (PD-10) of ligand-protein complexes, hFAP; assay type: binding; conditions: PD-10 column, hFAP 2 μM
T2 construct: made in house; host or cells: CHO cells, transient gene expression, purified from supernatant
T2 sequence (Q12884 with tags, fused parts or gaps): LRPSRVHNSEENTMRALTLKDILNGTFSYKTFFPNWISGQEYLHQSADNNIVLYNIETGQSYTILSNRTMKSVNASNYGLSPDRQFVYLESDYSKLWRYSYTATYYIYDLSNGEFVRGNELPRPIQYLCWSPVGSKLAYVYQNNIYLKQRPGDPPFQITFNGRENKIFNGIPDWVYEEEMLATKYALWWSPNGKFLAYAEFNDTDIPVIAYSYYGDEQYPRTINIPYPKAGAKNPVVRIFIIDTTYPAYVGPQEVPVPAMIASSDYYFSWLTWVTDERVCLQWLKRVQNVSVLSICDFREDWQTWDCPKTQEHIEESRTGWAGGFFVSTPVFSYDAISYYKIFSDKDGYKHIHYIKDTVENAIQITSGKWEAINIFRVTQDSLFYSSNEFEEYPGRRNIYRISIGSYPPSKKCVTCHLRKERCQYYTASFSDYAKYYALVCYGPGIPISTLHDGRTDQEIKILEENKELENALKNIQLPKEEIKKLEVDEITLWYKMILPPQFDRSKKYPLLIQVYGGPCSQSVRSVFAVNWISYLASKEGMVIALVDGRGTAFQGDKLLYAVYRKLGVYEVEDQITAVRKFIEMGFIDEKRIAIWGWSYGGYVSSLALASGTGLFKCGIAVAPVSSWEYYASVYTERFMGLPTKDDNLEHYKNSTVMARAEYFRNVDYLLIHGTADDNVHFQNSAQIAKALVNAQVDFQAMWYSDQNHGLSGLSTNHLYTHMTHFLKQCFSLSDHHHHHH
Description: A PD-10 column was pre-equilibrated with assay buffer (50 mM Tris, 100 mM NaCl, 1 mM EDTA, pH=7.4) prior to the loading of the complex. Human FAP (2 μM) and fluorescein-labeled binders (6 μM) were incubated for 30 min at 37° C. in the dark. The mixture was loaded and the column was flushed using the assay buffer. The flow through was collected in 96-well plates and the fluorescence was measured immediately on a TECAN microtiter plate reader, monitoring the fluorescence at an excitation wavelength of 485 nm and an emission wavelength of 535 nm. The protein quantities were estimated by measuring the absorbance at 280 nm using a Nanodrop 2000/2000c spectrophotometer.
A PD-10 column was pre-equilibrated with assay buffer (50 mM Tris, 100 mM NaCl, 1 mM EDTA, pH=7.4) prior to the loading of the complex. A mixture of different proteins (hFAP=2 μM, mFAP=5 μM) and conjugate 15 (100 nM) were incubated and loaded on the column. The mixture was flushed using the assay buffer. The flow through was collected in 96-well plates and the fluorescence intensity was measured immediately on a TECAN microtiter plate reader, monitoring the fluorescence at an excitation wavelength of 485 nm and an emission wavelength of 535 nm. The concentration of the proteins was estimated by measuring the absorbance at 280 nm using a Nanodrop 2000/2000c spectrophotometer.

HT-1080.hFAP [2] = assay: FACS analysis on HT-1080 wild type and HT-1080.hFAP; assay type: cell-based; conditions: 10 nM
Description: as §1

SMILES: N#C[C@@H]1CC(F)(F)CN1C(=O)CNC(=O)c1ccnc2c(NC(=O)CCC(=O)N[C@@H](CC(=O)O)C(=O)N[C@@H](CCCCN)C(=O)N[C@@H](CC(=O)O)C(=O)N[C@@H](CSC3CC(=O)N(c4ccc5c(c4)C(=O)OC54c5ccc(O)cc5Oc5cc(O)ccc54)C3=O)C(=O)O)cccc12 (stereo partly drawn) [Conjugate 15, (2R,5S,8S,11S)-8-(4-aminobutyl)-5,11-bis(carboxymethyl)-16-((4-((2-((S)-2-cyano-4,4-difluoropyrrolidin-1-yl)-2-oxoethyl)carbamoyl)quinolin-8-yl)amino)-2-(((1-(3′,6′-dihydroxy-3-oxo-3H-spiro[isobenzofuran-1,9′-xanthen]-5-yl)-2,5-dioxopyrrolidin-3-yl)thio)methyl)-4,7,10,13,16-pentaoxo-3,6,9,12-tetraazahexadecanoic acid] ({X1-Suc}-DKDC(Fluorescein(5-Mal))-OH)
- cellular binding, SK-RC-52 Wild type vs SK-RC-52.hFAP (SK-RC-52.hFAP): FAP-specific cellular binding
- accumulation on HT-1080.hFAP cells (HT-1080.hFAP [1]): accumulation of conjugate 15 on the cell membrane and inside the cytosol
- Kd (murine FAP): 11.6 nM
- complex formation with hFAP in PD-10 co-elution (hFAP): stable complex is formed
- cellular binding, HT-1080 Wild type vs HT-1080.hFAP (HT-1080.hFAP [2]): FAP-specific cellular binding
